Test: Log P, partition coefficient between water and octanol
Format: physicochemical
Excerpt: Log P is the partition coefficient between water and octanol.

First: CC1COC(Cn2ncnc2S)(c2cc(F)c(Oc3ccccc3)cc2F)O1 (stereo not drawn) [Example 64, 2-{2-[2,5-Difluoro-4-phenoxy-phenyl]-4-methyl-[1,3]dioxolan-2-yl-methyl}-2H-[1,2,4]triazole-3-thiol]
Second: CC1COC(Cn2ncnc2S)(c2cc(F)c(Oc3ccc(Cl)cc3)cc2F)O1 (stereo not drawn) [Example 63, 2-{2-[4-(4-Chloro-phenoxy)-2,5-difluoro-phenyl]-4-methyl-[1,3]dioxolan-2-ylmethyl}-2H-[1,2,4]triazole-3-thiol]
The logP of the first is lower: 2.9 for the first, 3.2 for the second.

`CC1COC(Cn2ncnc2S)(c2ccc(Oc3ccc(Cl)cc3)c(F)c2)O1` (stereo not drawn) [Example 69, 2-{2-[4-(4-Chloro-phenoxy)-3-fluoro-phenyl]-4-methyl-[1,3]dioxolan-2-yl-methyl}-2H-[1,2,4]triazole-3-thiol] and `CC1COC(Cn2ncnc2S)(c2ccc(Oc3ccc(Cl)cc3)cc2F)O1` (stereo not drawn) [Example 70, 2-{2-[4-(4-Chloro-phenoxy)-2-fluoro-phenyl]-4-methyl-[1,3]dioxolan-2-yl-methyl}-2H-[1,2,4]triazole-3-thiol] are within 0.2 log units of each other in logP: 3.6 for the first, 3.5 for the second.

Compared with `CCCC1COC(Cn2cncn2)(c2ccc(Oc3ccc(Cl)cc3)cc2Cl)O1` (stereo not drawn) [Example 39, 1-{2-[2-Chloro-4-(4-chloro-phenoxy)-phenyl]-4-propyl-[1,3]dioxolan-2-ylmethyl}-1H-[1,2,4]triazole], `CCC1COC(Cn2cncn2)(c2ccc(Oc3ccc(Cl)cc3)cc2Cl)O1` (stereo not drawn) [Example 38, 1-{2-[2-Chloro-4-(4-chloro-phenoxy)-phenyl]-4-ethyl-[1,3]dioxolan-2-ylmethyl}-1H-[1,2,4]triazole] is lower in logP: 5.4 for the first, 5 for the second.

Compared with `CC1COC(Cn2cncn2)(c2cc(F)c(Oc3ccccc3)c(F)c2)O1` (stereo not drawn) [Example 41, 1-{2-[3,5-Difluoro-4-phenoxy-phenyl]-4-methyl-[1,3]dioxolan-2-ylmethyl}-1H-[1,2,4]triazole], `CC1COC(Cn2cncn2)(c2ccc(Oc3ccc(Cl)cc3)c(F)c2)O1` (stereo not drawn) [Example 32, 1-{2-[4-(4-Chloro-phenoxy)-3-fluoro-phenyl]-4-methyl-[1,3]dioxolan-2-ylmethyl}-1H-[1,2,4]triazole] is higher in logP: 3.7 for the first, 4.2 for the second.

Test: not given

First: COCC1COC(Cn2ncnc2S)(c2ccc(Oc3ccc(Cl)cc3)cc2Cl)O1 (stereo not drawn) [Example 66, 2-{2-[2-Chloro-4-(4-chloro-phenoxy)-phenyl]-4-methoxymethyl-[1,3]dioxolan-2-ylmethyl}-2H-[1,2,4]triazole-3-thiol]
Second: CCCC1COC(Cn2ncnc2S)(c2ccc(Oc3ccc(Cl)cc3)cc2Cl)O1 (stereo not drawn) [Example 65, 2-{2-[2-Chloro-4-(4-chloro-phenoxy)-phenyl]-4-propyl-[1,3]dioxolan-2-yl-methyl}-2H-[1,2,4]triazole-3-thiol]
The melting point of the first is higher: 153 to 155 °C for the first, 105 to 106 °C for the second.

First: CC1COC(Cn2cncn2)(c2ccc(Oc3ccc(F)cc3F)cc2)O1 (stereo not drawn) [Example 4, 1-{2-[4-(2,4-Difluoro-phenoxy)-phenyl]-4-methyl-[1,3]dioxolan-2-ylmethyl}-1H-[1,2,4]triazole]
Second: CC1COC(Cn2cncn2)(c2ccc(Oc3ccc(Cl)cc3F)cc2)O1 (stereo not drawn) [Example 3, 1-{2-[4-(4-Chloro-2-fluoro-phenoxy)-phenyl]-4-methyl-[1,3]dioxolan-2-ylmethyl}-1H-[1,2,4]triazole]
The melting point of the first is lower: 83 to 86 °C for the first, 113 to 115 °C for the second.

First: CC1COC(Cn2ncnc2S)(c2ccc(Oc3ccccc3)c(F)c2)O1 (stereo not drawn) [Example 67, 2-{2-[3-Fluoro-4-phenoxy-phenyl]-4-methyl-[1,3]dioxolan-2-yl-methyl}-2H-[1,2,4]triazole-3-thiol]
Second: CC1COC(Cn2ncnc2S)(c2cc(F)c(Oc3ccccc3)c(F)c2)O1 (stereo not drawn) [Example 68, 2-{2-[3,5-Difluoro-4-phenoxy-phenyl]-4-methyl-[1,3]dioxolan-2-yl-methyl}-2H-[1,2,4]triazole-3-thiol]
The melting point of the first is lower: 62 to 64 °C for the first, 139 to 141 °C for the second.

First: CC1COC(Cn2cncn2)(c2cc(F)c(Oc3ccc(Cl)cc3)cc2F)O1 (stereo not drawn) [Example 37, 1-{2-[4-(4-Chloro-phenoxy)-2,5-difluoro-phenyl]-4-methyl-[1,3]dioxolan-2-ylmethyl}-1H-[1,2,4]triazole]
Second: CC1COC(Cn2cncn2)(c2cc(F)c(Oc3ccccc3)cc2F)O1 (stereo not drawn) [Example 40, 1-{2-[3,6-Difluoro-4-phenoxy-phenyl]-4-methyl-[1,3]dioxolan-2-ylmethyl}-1H-[1,2,4]triazole]
The melting point of the first is lower: 86 to 88 °C for the first, 102 to 104 °C for the second.

First: CC1COC(Cn2cncn2)(c2ccc(Oc3c(F)cccc3Cl)cc2)O1 (stereo not drawn) [Example 6, 1-{2-[4-(6-Chloro-2-fluoro-phenoxy)-phenyl]-4-methyl-[1,3]dioxolan-2-ylmethyl}-1H-[1,2,4]triazole]
Second: CCC1COC(Cn2cncn2)(c2ccc(Oc3c(F)cccc3F)cc2)O1 (stereo not drawn) [Example 9, 1-{2-[4-(2,6-Difluoro-phenoxy)-phenyl]-4-ethyl-[1,3]dioxolan-2-ylmethyl}-1H-[1,2,4]triazole]
The melting point of the first is higher: 112 to 114 °C for the first, 90 to 95 °C for the second.

First: CCC1COC(Cn2cncn2)(c2ccc(Oc3ccc(F)cc3F)cc2)O1 (stereo not drawn) [Example 5, 1-{2-[4-(2,4-Difluoro-phenoxy)-phenyl]-4-ethyl-[1,3]dioxolan-2-ylmethyl}-1H-[1,2,4]triazole]
Second: CC1COC(Cn2cncn2)(c2ccc(Oc3ccccc3)c(F)c2)O1 (stereo not drawn) [Example 35, 1-{2-[3-Fluoro-4-phenoxy-phenyl]-4-methyl-[1,3]dioxolan-2-ylmethyl}-1H-[1,2,4]triazole]
The melting point of the first is higher: 112 to 114 °C for the first, 108 to 110 °C for the second.

In the case of `CC1COC(Cn2cncn2)(c2ccc(Oc3cc(F)ccc3F)cc2Cl)O1` (stereo not drawn) [Example 26, 1-{2-[2-Chloro-4-(2,5-difluoro-phenoxy)-phenyl]-4-methyl-[1,3]dioxolan-2-ylmethyl}-1H-[1,2,4]triazole], the melting point was 119.9 °C.

Source: patent US20120088663A1, “Triazole Compounds Carrying a Sulfur Substituent” (BASF SE, priority 2009, published 2012)
